Laboratory results reported in patent US20250074911A1, “MACROCYCLIC BTK INHIBITORS” (Crossfire Oncology Holding B.V., priority 2021, published 2025).

What was measured:
[1] = system: wt-REC-1 mantle cell lymphoma cells; test: Cell proliferation assay wt-REC-1 (ATPlite, 72 hours); assay type: cell-based; conditions: 72 h; read-out: IC50 wt-REC-1
Description: Results of the BTK […] binding affinity are shown in Table 1 below. • IC50 BTK […]: […] wt-REC-1 mantle cell lymphoma cells were purchased from American Type Culture Collection via Synthego Corporation (cat. no. CRL-3004, ATCC). […] Luminescence was recorded on an Envision multimode reader. The cell signal at the start of incubation was recorded separately in order to distinguish between cell population growth and cell death. In addition, maximum growth was determined by incubation of a duplicate without compound in the presence of 0.3% DMSO. Percentage growth was used as the main y-axis signal. IC50s were fitted by non-linear regression using IDBS XLfitTM5 using a 4-parameter logistic curve, yielding a maximum signal, minimum signal, hill-parameter and IC50. Results of the wt-REC-1 proliferation are shown in Table 1 below. • IC50 wt-REC-1: […]

REC-1 T474I cell lines = test: Cell proliferation assay REC-1 BTK T474I knock-in cells (ATPlite, 72 hours); assay type: cell-based; conditions: Homo sapiens, Rec1; 72 hours; read-out: IC50 REC-1 T474I
Description: Cell proliferation assay Generation of BTK […] knock-in cell lines wt-REC-1 cell lines expressing mutant BTK were created at Synthego Corporation. Cell lines expressing BTK […] was generated via CRISPR/Cas9. Monoclonal REC-1 […] cell lines were obtained by single cell cloning. The mutation status of all cell lines was confirmed via sequencing. […] Luminescence was recorded on an Envision multimode reader. The cell signal at the start of incubation was recorded separately in order to distinguish between cell population growth and cell death. In addition, maximum growth was determined by incubation of a duplicate without compound in the presence of 0.3% DMSO. Percentage growth was used as the main y-axis signal.

[2] = biological target: full-length BTK C481S enzyme (Homo sapiens (Human), UniProt Q06187, C481S); test: Biochemical kinase assay BTK C481S (IMAP)
full-length BTK C481S enzyme, sequence (Q06187 whole entry C481S): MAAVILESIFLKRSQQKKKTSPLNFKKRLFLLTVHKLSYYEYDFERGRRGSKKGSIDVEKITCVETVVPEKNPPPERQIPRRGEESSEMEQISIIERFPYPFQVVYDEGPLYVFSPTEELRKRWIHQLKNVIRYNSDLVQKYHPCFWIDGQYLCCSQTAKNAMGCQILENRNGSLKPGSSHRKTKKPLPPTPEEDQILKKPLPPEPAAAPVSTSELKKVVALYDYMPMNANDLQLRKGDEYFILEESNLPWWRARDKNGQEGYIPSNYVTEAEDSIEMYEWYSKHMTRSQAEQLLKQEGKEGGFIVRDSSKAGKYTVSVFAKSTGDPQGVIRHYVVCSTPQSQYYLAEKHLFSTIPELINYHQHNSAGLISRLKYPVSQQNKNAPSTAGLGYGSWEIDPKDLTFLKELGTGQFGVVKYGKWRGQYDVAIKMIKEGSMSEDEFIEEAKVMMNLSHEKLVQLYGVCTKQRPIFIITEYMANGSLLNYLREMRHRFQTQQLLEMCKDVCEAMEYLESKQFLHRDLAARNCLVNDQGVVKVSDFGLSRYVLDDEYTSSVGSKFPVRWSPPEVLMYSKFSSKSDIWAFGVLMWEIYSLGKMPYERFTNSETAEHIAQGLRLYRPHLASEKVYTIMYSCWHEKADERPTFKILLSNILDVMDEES
Description: Biochemical kinase assay BTK […] To determine the inhibitory activity of compounds on BTK C481S enzyme activity, the IMAP® assay (Molecular Devices) was used. […] After pre-incubation of 1 hour in the dark at room temperature, fluorescein-labeled MBP-derived substrate peptide (Molecular Devices, cat. no. RP 7123) was added, followed by ATP to start the reaction. Final enzyme concentration was 1.2 nM final substrate concentration 50 nM, and final ATP concentration was 7 μM. The reaction was allowed to proceed for 2 hours at room temperature in the dark. The reaction was stopped by quenching with IMAP progressive binding solution according to the protocol of the manufacturer (Molecular Devices). Fluorescein polarization was measured on an Envision multimode reader (Perkin Elmer, Waltham, MA, U.S.A.). IC50 were calculated using XLfitTM5 software (ID Business Solutions, Ltd., Surrey, U.K.). Results of the BTK […] binding affinity are shown in Table 1 below. • IC50 BTK […]: […]

[3] = biological target: full-length wt-BTK enzyme (Homo sapiens (Human), UniProt Q06187); test: Biochemical kinase assay wt-BTK (IMAP)
full-length wt-BTK enzyme, sequence (Q06187 whole entry): as the sequence (Q06187 whole entry C481S) above, with S481C counted along it
Description: Biochemical kinase assay wt-BTK To determine the inhibitory activity of compounds on wt-BTK enzyme activity, the IMAP® assay (Molecular Devices) was used. […] After pre-incubation of 1 hour in the dark at room temperature, fluorescein-labeled MBP-derived substrate peptide (Molecular Devices, cat. no. RP 7123) was added, followed by ATP to start the reaction. Final enzyme concentration was 1.2 nM, final substrate concentration 50 nM, and final ATP concentration was 4 μM. The reaction was allowed to proceed for 2 hours at room temperature in the dark. The reaction was stopped by quenching with IMAP progressive binding solution according to the protocol of the manufacturer (Molecular Devices). Fluorescein polarization was measured on an Envision multimode reader (Perkin Elmer, Waltham, MA, U.S.A.). […] Results of the wt-BTK binding affinity are shown in Table 1 below. • IC50 wt-BTK: […]

Row | IC50 [1] [nM] | IC50 [2] [nM] | IC50 [3] [nM] | SMILES | IC50 (REC-1 T474I cell lines) [nM]
1 | 1000 to 10000 | 5 to 50 | 5 to 50 | Nc1ncc2c3c1c(-c1ccc(C(=O)Nc4cc(C(F)(F)F)ccn4)cc1)nn3[C@@H]1CCC[C@H](C1)NC(=O)CCNC/C=C/C2 [Example 106] | 500 to 10000
2 | 100 to 1000 | < 5 | < 5 | Nc1ncc2c3c1c(-c1ccc(C(=O)Nc4cc(C(F)(F)F)ccn4)cc1)nn3[C@@H]1CCC[C@H](C1)NC(=O)CCNCCCC2 [Example 112] | 100 to 500
3 | 100 to 1000 | < 5 | 5 to 50 | C[C@@H]1CCn2nc(-c3ccc(C(=O)Nc4cc(C(F)(F)F)ccn4)cc3)c3c(N)ncc(c32)/C=C/CCCCCCCCC(=O)N1 [Example 64] | 500 to 10000
4 | 100 to 1000 | 50 to 500 | 50 to 500 | Nc1ncc2c3c1c(-c1ccc(C(=O)Nc4ccccn4)cc1)nn3[C@@H]1CCC[C@H](C1)NC(=O)CCCCC2 [Example 124] | 500 to 10000
5 | 100 to 1000 | < 5 | < 5 | C[C@@H]1CCn2nc(-c3ccc(C(=O)Nc4cc(C(F)(F)F)ccn4)cc3)c3c(N)ncc(c32)/C=C/CCCCCCCC(=O)N1 [Example 63] | 500 to 10000
6 | 100 to 1000 | 5 to 50 | 5 to 50 | Nc1ncc2c3c1c(-c1ccc(C(=O)Nc4ccccn4)cc1)nn3[C@@H]1CCC[C@H](C1)C(=O)NCCC/C=C\C2 [Example 90] | 500 to 10000
7 | 100 to 1000 | < 5 | 5 to 50 | Nc1ncc2c3c1c(-c1ccc(C(=O)Nc4cc(C(F)(F)F)ccn4)cc1)nn3[C@@H]1CCC[C@H](C1)C(=O)NCCCCCC2 [Example 117] | 500 to 10000
8 | 100 to 1000 | 5 to 50 | 5 to 50 | COC1/C=C/c2cnc(N)c3c(-c4ccc(C(=O)Nc5cc(C(F)(F)F)ccn5)cc4)nn(c23)[C@@H]2CCC[C@H](C2)NC(=O)CCC1 (stereo partly drawn) [Example 19] | 500 to 10000
9 | 1000 to 10000 | 50 to 500 | 50 to 500 | C[C@@H]1CCn2nc(-c3ccc(C(=O)Nc4cc(C(F)(F)F)ccn4)cc3)c3c(N)ncc(c32)C/C=C/CCCC(=O)N1 [Example 109b] | 500 to 10000
10 | 1000 to 10000 | 50 to 500 | 50 to 500 | Nc1ncc2c3c1c(-c1ccc(C(=O)Nc4ccccn4)cc1)nn3[C@@H]1CCC[C@H](C1)NC(=O)COC/C=C/C2 [Example 104a] | 500 to 10000
11 | 1000 to 10000 | 50 to 500 | 50 to 500 | Nc1ncc2c3c1c(-c1ccc(C(=O)Nc4ccccn4)cc1)nn3[C@@H]1CCC[C@H](C1)C(=O)NCC/C=C\C2 [Example 91] | 500 to 10000
12 | 100 to 1000 | 5 to 50 | 5 to 50 | Nc1ncc2c3c1c(-c1ccc(C(=O)Nc4cc(C(F)(F)F)ccn4)cc1)nn3[C@@H]1CCC[C@H](C1)NC(=O)CCCCC/C=C/C2 [Example 101a] | 500 to 10000
13 | 100 to 1000 | < 5 | < 5 | Nc1ncc2c3c1c(-c1ccc(C(=O)Nc4cc(C(F)(F)F)ccn4)cc1)nn3[C@@H]1CCC[C@H](C1)NC(=O)CCCCCC/C=C/C2 [Example 103a] | 100 to 500
14 | 100 to 1000 | < 5 | < 5 | Nc1ncc2c3c1c(-c1ccc(C(=O)Nc4cc(C(F)(F)F)ccn4)cc1)nn3[C@@H]1CCC[C@H](C1)NC(=O)CCCCNC/C=C/2 [Example 22] | 500 to 10000
15 | 100 to 1000 | 5 to 50 | 5 to 50 | C[C@@H]1CCn2nc(-c3ccc(C(=O)Nc4cc(C(F)(F)F)ccn4)cc3)c3c(N)ncc(c32)C/C=C\CCCC(=O)N1 [Example 109a] | 500 to 10000
16 | 1000 to 10000 | 50 to 500 | 50 to 500 | Nc1ncc2c3c1c(-c1ccc(C(=O)Nc4ccccn4)cc1)nn3[C@@H]1CCC[C@H](C1)NC(=O)CC/C=C/C2 [Example 96a] | 500 to 10000

Row | IC50 [1] [nM] | IC50 [2] [nM] | IC50 [3] [nM] | SMILES | IC50 (REC-1 T474I cell lines) [nM]
17 | 100 to 1000 | 5 to 50 | 5 to 50 | Nc1ncc2c3c1c(-c1ccc(C(=O)Nc4ccccn4)cc1)nn3[C@@H]1CCC[C@H](C1)NC(=O)CCCCCC2 [Example 125] | 500 to 10000
18 | 100 to 1000 | 5 to 50 | 5 to 50 | Nc1ncc2c3c1c(-c1ccc(C(=O)Nc4cc(C(F)(F)F)ccn4)cc1)nn3[C@@H]1CCC[C@H](C1)C(=O)NCCC/C=C/C2 [Example 84a] | 500 to 10000
19 | 1000 to 10000 | 50 to 500 | 50 to 500 | Nc1ncc2c3c1c(-c1ccc(C(=O)Nc4cc(C(F)(F)F)ccn4)cc1)nn3[C@@H]1CCC[C@H](C1)C(=O)NCCCCC2 [Example 116] | 500 to 10000
20 | 100 to 1000 | 5 to 50 | 5 to 50 | Nc1ncc2c3c1c(-c1ccc(C(=O)Nc4cc(C(F)(F)F)ccn4)cc1)nn3[C@@H]1CCC[C@H](C1)C(=O)NCCCCCC/C=C\C2 [Example 92] | 500 to 10000
21 | 100 to 1000 | 5 to 50 | 5 to 50 | C[C@@H]1CCn2nc(-c3ccc(C(=O)Nc4cc(C(F)(F)F)ccn4)cc3)c3c(N)ncc(c32)CCCOCC(=O)N1 [Example 122] | 500 to 10000
22 | 1000 to 10000 | 5 to 50 | 5 to 50 | Nc1ncc2c3c1c(-c1ccc(C(=O)Nc4cc(C(F)(F)F)ccn4)cc1)nn3[C@@H]1CCC[C@H](C1)NC(=O)CCCNC/C=C/C2 [Example 107] | 500 to 10000
23 | 1000 to 10000 | 5 to 50 | 5 to 50 | Nc1ncc2n3c(nc(-c4ccc(C(=O)Nc5cc(C(F)(F)F)ccn5)cc4)c13)CCCNC(=O)CCC=CC2 [Example 134] | 
24 | 1000 to 10000 | 5 to 50 | 5 to 50 | Nc1ncc2c3c1c(-c1ccc(C(=O)Nc4cc(C(F)(F)F)ccn4)cc1)nn3[C@@H]1CCC[C@H](C1)NC(=O)COC/C=C/C2 [Example 97a] | 500 to 10000
25 | 1000 to 10000 | < 5 | < 5 | C[C@@H]1CCn2nc(-c3ccc(C(=O)Nc4cc(C(F)(F)F)ccn4)cc3)c3c(N)ncc(c32)/C=C/C[S+]([O-])CC(=O)N1 (stereo partly drawn) [Example 65] | 500 to 10000
26 | 100 to 1000 | < 5 | < 5 | Nc1ncc2c3c1c(-c1ccc(C(=O)Nc4cc(C(F)(F)F)ccn4)cc1)nn3[C@@H]1CCC[C@H](C1)NC(=O)CCC/C=C\C2 [Example 94b] | 500 to 10000
27 | 100 to 1000 | 5 to 50 | 5 to 50 | Nc1ncc2c3c1c(-c1ccc(C(=O)Nc4cc(C(F)(F)F)ccn4)cc1)nn3[C@@H]1CCC[C@H](C1)C(=O)NCCCCCCCCC2 [Example 120] | 500 to 10000
28 | 100 to 1000 | < 5 | < 5 | Nc1ncc2c3c1c(-c1ccc(C(=O)Nc4cc(C(F)(F)F)ccn4)cc1)nn3[C@@H]1CCC[C@H](C1)NC(=O)CNCCCC2 [Example 127] | 500 to 10000
29 | 1000 to 10000 | 5 to 50 | 5 to 50 | Nc1ncc2n3c(nc(-c4ccc(C(=O)Nc5cc(C(F)(F)F)ccn5)cc4)c13)[C@@H]1CCC[C@H](C1)NC(=O)CC/C=C/C2 [Example 136] | 
30 | 100 to 1000 | < 5 | 5 to 50 | Nc1ncc2c3c1c(-c1ccc(C(=O)Nc4cc(C(F)(F)F)ccn4)cc1)nn3[C@@H]1CCC[C@H](C1)C(=O)NCCC/C=C\C2 [Example 84b] | 
31 | 1000 to 10000 | 5 to 50 | 5 to 50 | Nc1ncc2n3c(nc(-c4ccc(C(=O)Nc5cc(C(F)(F)F)ccn5)cc4)c13)CCCNC(=O)CCCC=CC2 [Example 135] | 
